This is an account of results in paper PMC4511006 (PLoS ONE, 2015).

Series [1] concerns the target T1, C1 complex (C1s bound to C1q) (Homo sapiens, UniProt P02745+P02746+P02747).
T1 construct: partially purified C1 complex was added to wells at a constant amount
Nature of the series: Displacement (competition ELISA) assay of C1s from C1. In kind it is binding. Particulars: C1 0.05μg; CP from 0.145μM, PA from 1.45μM (10-fold molar excess). The protocol:
This was performed similarly to the competitive binding assay described by Hair et al., 2010 [8], with the following differences. Plates were coated with monoclonal antibody to C1q (Quidel) at 1:1000 overnight. In blocking buffer containing 2mM CaC1_2, partially purified C1 complex was added to wells at a constant amount (0.05μg) with decreasing amounts of either CP or PA, starting with concentrations for CP at 0.145μM and 1.45μM for PA. Detection of C1q and C1s was confirmed as described by Hair et al., 2010 [8].
On the technique in general: An ELISA detects its analyte on a solid surface through an enzyme-linked reagent.

In series [2] the test system is classical pathway complement activity in factor B-depleted human serum. Description: Hemolysis assay using factor-B depleted serum and antibody-sensitized sheep erythrocytes. The conditions noted are these: 0.77mM peptide in factor B-depleted serum; triplicate, mean; standardized to water or DMSO. In kind it is biochemical. The protocol:
(§1) Soluble peptides were dissolved in water whereas insoluble peptides were reconstituted in DMSO. Results were standardized to water or DMSO, as appropriate.

A further series in a line: Solubility in water. In kind it is physicochemical. As to the method: as §1
The target in another series is intact C1q. On the set-up: method as in PMID 22906481. Particulars: SPR; cited from earlier work. On the technique in general: In SPR one partner is held on a chip, and binding of the other changes the refractive index at the surface.
In the next series the test system is complement activation. The conditions noted are these: Wistar rats, delivered IV; cited from earlier work. The source says:
However, a serious limitation to these peptide analogs was their lack of solubility in aqueous solution. Given the aqueous solubility of PA-dPEG24, we set out to determine their efficacy in vivo.

For another series, the target named is T2, C1q (Homo sapiens, UniProt P02745+P02746+P02747).
T2 construct: Purified C1q (1μg) was added to wells
T2 sequence (P02745 23-245): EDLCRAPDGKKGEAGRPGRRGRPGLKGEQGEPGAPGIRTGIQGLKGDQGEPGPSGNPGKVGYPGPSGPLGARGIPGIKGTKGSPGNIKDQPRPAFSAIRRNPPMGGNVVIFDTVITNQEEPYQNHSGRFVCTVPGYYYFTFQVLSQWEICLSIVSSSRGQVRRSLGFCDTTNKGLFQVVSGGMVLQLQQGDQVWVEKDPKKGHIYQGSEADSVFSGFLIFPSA
T2 sequence (P02746 28-253): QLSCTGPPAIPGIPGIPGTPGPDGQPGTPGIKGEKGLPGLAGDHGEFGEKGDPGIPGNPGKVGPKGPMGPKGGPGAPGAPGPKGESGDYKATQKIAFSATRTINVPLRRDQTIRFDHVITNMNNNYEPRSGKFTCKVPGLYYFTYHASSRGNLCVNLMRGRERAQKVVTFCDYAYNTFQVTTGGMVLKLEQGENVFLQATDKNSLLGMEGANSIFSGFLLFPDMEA
T2 sequence (P02747 29-245): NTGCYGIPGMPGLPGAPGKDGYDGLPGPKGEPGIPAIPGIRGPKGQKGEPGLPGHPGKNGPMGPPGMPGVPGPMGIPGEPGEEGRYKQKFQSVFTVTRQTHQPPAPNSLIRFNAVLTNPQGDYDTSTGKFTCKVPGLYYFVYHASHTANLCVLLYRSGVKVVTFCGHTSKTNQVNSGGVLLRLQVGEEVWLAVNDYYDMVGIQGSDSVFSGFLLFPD
Description: Cross-linking of biotinylated PA to C1q with BS3, SDS-PAGE/western blot. In kind it is binding. Particulars: C1q:biotinylated PA 1:25, BS3 20μM. As to the method: Purified C1q and biotinylated PA, at a ratio of 1:25, were incubated in conjugation buffer (0.1M Na2HPO4, 0.15M NaCl, pH 8.0) at room temperature for 2.5h. The crosslinker BS^3 (Bis(sulfosuccinimidlyl) suberate, Pierce) was added to a final concentration of 20μM and the mixture was incubated for 30 min. The reaction was quenched with 1M Tris-HCl (pH 7.5) to a final concentration of […] for 15 min. Reactions were analyzed via SDS-PAGE (NU-PAGE Bis/Tris 4–12% gradient gel) and western blot using a 1:1500 dilution of streptavidin IR 680 (LiCor) for 1h, 1:2000 dilution of goat anti-C1q IgG (CompTech) for 1h and 1:10,000 dilution of donkey anti-goat IgG IR 800 (Licor) for 1h. Gels were analyzed on an Odyssey Infrared Imaging System (Licor) and identical gels were visualized with bio-safe Coomassie stain (Bio-Rad) to confirm total protein content.
(In general: Immunoblotting shows a protein as a band on a membrane.)

The next series addresses ficolin L (ficolin-2) (Homo sapiens, UniProt Q15485). Description: ELISA, biotinylated PA binding to ficolin L. The conditions noted are these: ficolin adsorbed at 10μg/mL, 0.4M NaCl in blocking buffer, compared with C1q. The protocol:
(§2) Wild-type recombinant ficolins L (ficolin-2), H (ficolin-3), M (ficolin-1) were adsorbed to a microtiter plate at 10μg/mL. C1q (25nM) and BSA (30μg/mL) were immobilized as controls. Plates were blocked with 3% BSA/PBST for 2h. Biotinylated PA was added at various concentrations in blocking buffer containing 0.4M NaCl (to reduce nonspecific binding) and incubated for 1h at room temperature. Following washing, wells were probed neutravidin-HRP (1:4000) in blocking buffer for 1h and developed as described above. Absorbance values from wells not incubated with biotinylated PA were subtracted as background.

A further series has as its target ficolin H (ficolin-3) (Homo sapiens, UniProt O75636). Description: ELISA, biotinylated PA binding to ficolin H. Particulars: ficolin adsorbed at 10μg/mL, 0.4M NaCl in blocking buffer, compared with C1q. The protocol: as §2
The next series has as its target ficolin M (ficolin-1) (Homo sapiens, UniProt O00602). Description: ELISA, biotinylated PA binding to ficolin M. The conditions noted are these: ficolin adsorbed at 10μg/mL, 0.4M NaCl in blocking buffer, compared with C1q. The protocol:
as §2

Several values for one entry are separate records, joined by “and”; a condition that tells them apart may be missing. Identical values can stand only once. Ends that are not written are not given here.

ficolin L (ficolin-2), sequence (Q15485 26-313): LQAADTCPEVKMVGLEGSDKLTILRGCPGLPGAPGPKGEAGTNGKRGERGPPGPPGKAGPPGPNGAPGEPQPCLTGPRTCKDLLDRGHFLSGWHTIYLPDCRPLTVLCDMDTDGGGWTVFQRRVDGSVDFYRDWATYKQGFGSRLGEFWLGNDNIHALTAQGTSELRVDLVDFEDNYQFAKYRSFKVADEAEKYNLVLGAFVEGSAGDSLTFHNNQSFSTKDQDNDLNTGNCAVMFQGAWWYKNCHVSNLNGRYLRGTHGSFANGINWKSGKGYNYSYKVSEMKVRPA
T1 sequence (P02745 23-245): as the sequence (P02745 23-245) above
T1 sequence (P02746 28-253): as the sequence (P02746 28-253) above
T1 sequence (P02747 29-245): as the sequence (P02747 29-245) above
ficolin H (ficolin-3), sequence (O75636 24-299): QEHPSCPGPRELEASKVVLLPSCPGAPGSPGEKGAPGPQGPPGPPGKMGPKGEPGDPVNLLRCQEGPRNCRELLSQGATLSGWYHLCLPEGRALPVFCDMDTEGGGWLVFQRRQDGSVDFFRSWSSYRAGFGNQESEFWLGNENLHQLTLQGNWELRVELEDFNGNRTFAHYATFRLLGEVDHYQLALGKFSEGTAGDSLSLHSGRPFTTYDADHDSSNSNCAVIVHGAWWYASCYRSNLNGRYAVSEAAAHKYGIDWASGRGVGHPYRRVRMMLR
ficolin M (ficolin-1), sequence (O00602 30-326): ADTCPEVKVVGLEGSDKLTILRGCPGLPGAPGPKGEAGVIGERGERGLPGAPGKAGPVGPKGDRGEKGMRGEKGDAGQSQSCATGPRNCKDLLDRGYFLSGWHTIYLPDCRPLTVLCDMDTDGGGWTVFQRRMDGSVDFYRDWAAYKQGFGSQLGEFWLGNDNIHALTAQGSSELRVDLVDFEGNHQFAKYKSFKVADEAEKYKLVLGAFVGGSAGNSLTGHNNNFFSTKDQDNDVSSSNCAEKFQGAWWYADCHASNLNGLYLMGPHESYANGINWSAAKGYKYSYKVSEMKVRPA

For orientation: Kd means the constant that tells how readily two partners part at equilibrium. Regarding `CC[C@H](C)[C@H](N)C(=O)N[C@@H](C)C(=O)N[C@@H](CC(C)C)C(=O)N[C@H](C(=O)N[C@@H](CC(C)C)C(=O)N[C@@H](CCC(=O)O)C(=O)N1CCC[C@H]1C(=O)N[C@H](C(=O)N[C@@H](CS)C(=O)N[C@@H](CS)C(=O)N[C@@H](CCC(N)=O)C(=O)N[C@@H](CCC(=O)O)C(=O)N[C@@H](CCCNC(=N)N)C(=O)N[C@@H](C)C(=O)N[C@@H](C)C(=O)O)[C@@H](C)CC)[C@@H](C)CC` [PA], the “displacement of C1s from C1q” value in [1] was “did not demonstrate competitive displacement of C1s from C1q”. Besides, in series [2], the “Hemolysis (%)” value is recorded as 39.49%. Moreover, the “solubility in water / aqueous solutions” value in “Solubility in water” is given as “lack of solubility in aqueous solutions”. In addition, on intact C1q, the dissociation constant Kd was 0.0333 µM and 0.033 µM. In the series on complement activation, the “inhibition of complement activation in vivo” value is reported as “able to inhibit complement activation in Wistar rats”. As to “EALILEPICCQERAA [PA-I1E, glutamic acid substitution peptide of PA]”, the “Hemolysis (%)” value in series [2] turned out to be 89.27%. On the same count and under the same terms, the figure for “IAEILEPICCQERAA [PA-L3E, glutamic acid substitution peptide of PA]” is 100.27%; for “IALELEPICCQERAA [PA-I4E, glutamic acid substitution peptide of PA]” it is 92.07%; for “IALIEEPICCQERAA [PA-L5E, glutamic acid substitution peptide of PA]” it is 94.33%. On the same count and under the same terms, the figure for “IALILEEICCQERAA [PA-P7E, glutamic acid substitution peptide of PA]” is 96.10%; for “IALILEPECCQERAA [PA-I8E, glutamic acid substitution peptide of PA]” it is 95.74%; for IALILEPICCEERAA [PA-Q11E] it is 65.60%. Consider IALILEPICCQEEAA [PA-R13E], for which the “Hemolysis (%)” value in [2] came to 101.99%. For the compound IALILEPICCQERAE [PA-A15E], in [2], the “Hemolysis (%)” value amounted to 93.13%.

Regarding IALILEPICCQERAR [PA-A15R], in series [2], the “Hemolysis (%)” value turned out to be 44.24%.

In the case of IALILEPICCQEREA [PA-A14E], the “Hemolysis (%)” value in series [2] is 98.09%. The same measure, in the same setting: to IALILEPICCQERRA [PA-A14R] belongs 88.65%; to IALILEPICCQRRAA [PA-E12R], 95.83%; to IALILEPICCRERAA [PA-Q11R], 90.87%.

For the compound “IALILEPRCCQERAA [PA-I8R, arginine substitution peptide of PA]”, the “Hemolysis (%)” value in series [2] is reported as 62.32%.

As to “IALILERICCQERAA [PA-P7R, arginine substitution peptide of PA]”, the “Hemolysis (%)” value in [2] amounted to 89.85%. Same read-out and setting: to “IALILRPICCQERAA [PA-E6R, arginine substitution peptide of PA]” belongs 87.59%; to “IALIREPICCQERAA [PA-L5R, arginine substitution peptide of PA]”, 93.40%. Same read-out and setting: the figure for “IALRLEPICCQERAA [PA-I4R, arginine substitution peptide of PA]” is 43.71%; for “IARILEPICCQERAA [PA-L3R, arginine substitution peptide of PA]” it is 80.45%; for “IELILEPICCQERAA [PA-A2E, glutamic acid substitution peptide of PA]” it is 92.24%. On the same count and under the same terms, to “IRLILEPICCQERAA [PA-A2R, arginine substitution peptide of PA]” belongs 87.28%; to “RALILEPICCQERAA [PA-I1R, arginine substitution peptide of PA]”, 91.93%. “biotinylated PA: C-terminally biotinylated PA peptide (IALILEPICCQERAA-biotin; cysteine pairing not given here)”: the “binding to C1q chains after cross-linking” value with C1q is “can bind monomeric chains of C1q along with the dimers A-B and C-C”. In the series with ficolin L (ficolin-2), the “binding to ficolin L” value was “bound PA to the same degree as C1q”. Besides, the “binding to ficolin H” value with ficolin H (ficolin-3) is reported as “bound PA to the same degree as C1q”. Further, the “binding to ficolin M” value with ficolin M (ficolin-1) is listed as “bound PA to the same degree as C1q”.
